EP0705259B1, “PHENYRROLE DERIVATIVES AND THEIR USE AS DOPAMINE D3 ANTAGONISTS” (SMITHKLINE BEECHAM PLC, priority 1993, dated 1995)
Counter-ions that a name gives are not always drawn.

biological target: T1, human D3 dopamine receptors (Homo sapiens, UniProt P35462); test: biochemical; assay type: binding; details: human D3 receptor; CHO cell membranes, 0.1 nM [125I] iodosulpride, 30 min at 37°C
T1 construct: expressed in transfected cells; host or cells: CHO cells (crude cell membranes)
Procedure: Cultures were grown as monolayers or in suspension in standard cell culture media. Cells were recovered by scraping (from monolayers) or by centrifugation (from suspension cultures), and were washed two or three times by suspension in phosphate buffered saline followed by collection by centrifugation. Cell pellets were stored frozen at -40°C. Crude cell membranes were prepared by homogenisation followed by high-speed centrifugation, and characterisation of cloned receptors achieved by radioligand binding.
Cell pellets were gently thawed at room temperature, and resuspended in about 20 volumes of ice-cold 50 mM Tris salts (pH 7.4 @ 37°C), 20mM EDTA, 0.2 M sucrose. The suspension was homogenised using an Ultra-Turrax (TM) at full speed for 15 sec. The homogenate was centrifuged at 18,000 r.p.m for 20 min at 4°C in a Sorvall RC5C centrifuge. The membrane pellet was resuspended in ice-cold 50 mM Tris salts (pH 7.4 @ 37°C), using an Ultra-Turrax (TM), and recentrifuged at 18,000 r.p.m for 15 min at 4°C in a Sorvall RC5C. The membranes were washed two more times with ice-cold 50 mM Tris salts (pH 7.4 @ 37°C). The final pellet was resuspended in 50 mM Tris salts (pH 7.4 @ 37°C), and the protein content determined using bovine serum albumin as a standard (Bradford, M. M. (1976) Anal. Biochem. 72, 248-254).
Crude cell membranes were incubated with 0.1 nM [^125I] iodosulpride (∼2000 Ci/mmol; Amersham, U. K.), and the test compound in a buffer containing 50 mM Tris salts (pH 7.4 @ 37°C), 120 mM NaCl, 5 mM KCl, 2 mM CaCl2, 1 mM MgCl2, 0.1% (w/v) bovine serum albumin, in a total volume of 1 ml for 30 min at 37°C. Following incubation with the test compound, samples were filtered using a Brandel Cell Harvester (TM), and washed three times with ice-cold 50 mM Tris salts (pH 7.4 @ 37°C), 120 mM NaCl, 5 mM KCl, 2 mM CaCl2, 1 mM MgCl2. The radioactivity on the filters was measured using a Cobra (TM) gamma counter (Canberra Packard). Non-specific binding was defined as the radioligand binding remaining after incubation in the presence of 100 µM iodosulpride. For competition curves, 14 concentrations (half-log dilutions) of competing cold drug were used.
Competition curves were analysed simultaneously whenever possible using non-linear least-squares fitting procedures, capable of fitting one, two or three site models.

T1 sequence (P35462 whole entry): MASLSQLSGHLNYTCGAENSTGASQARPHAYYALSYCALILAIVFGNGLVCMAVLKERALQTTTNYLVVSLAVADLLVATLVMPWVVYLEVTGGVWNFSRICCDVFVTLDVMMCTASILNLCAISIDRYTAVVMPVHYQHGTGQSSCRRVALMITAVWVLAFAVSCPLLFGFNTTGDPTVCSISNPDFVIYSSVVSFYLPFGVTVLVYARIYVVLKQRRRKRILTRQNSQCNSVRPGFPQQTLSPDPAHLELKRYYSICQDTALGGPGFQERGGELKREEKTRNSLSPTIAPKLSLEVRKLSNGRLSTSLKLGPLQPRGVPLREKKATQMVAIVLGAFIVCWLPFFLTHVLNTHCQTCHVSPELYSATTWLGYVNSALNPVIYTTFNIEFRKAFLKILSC

IC50, 1 to 50 nM:
CCS(=O)(=O)c1ccc(OC)c(-c2ccc(CN3CCCCCC3c3ccccc3)[nH]2)c1 (racemic) [Example 3, 2-(5-Ethylsulphonyl-2-methoxyphenyl)-5-(1-(2-(R,S)-phenylazacycloheptyl)-methyl)-1H-pyrrole, hydrochloride]
CCS(=O)(=O)c1cc(Br)c(OC)c(-c2ccc(CN3CCCCCC3c3ccccc3)[nH]2)c1 (racemic) [Example 6, 2-(3-Bromo-5-ethylsulphonyl-2-methoxyphenyl)-5-(1-(2-(R,S)-phenylazacycloheptyl)methyl)-1H-pyrrole, hydrochloride]
CCS(=O)(=O)c1ccc(OC)c(-c2ccc(CN3CCCCC[C@@H]3c3ccccc3)[nH]2)c1 [Example 10, 2-(5-Ethylsulphonyl-2-methoxyphenyl)-5-(1-(2-(R)-phenylazacycloheptyl)methyl)-1H-pyrrole, oxalate]
CCS(=O)(=O)c1ccc(OC)c(-c2ccc(CN3CCCCC[C@H]3c3ccccc3)[nH]2)c1 [Example 11, 2-(5-Ethylsulphonyl-2-methoxyphenyl)-5-(1-(2-(S)-phenylazacycloheptyl)methyl)-1H-pyrrole, oxalate]
COc1ccc(S(=O)(=O)N2CCOCC2)cc1-c1ccc(CN2CCCCC[C@@H]2c2ccccc2)[nH]1 [Example 13, 2-(2-Methoxy-5-(4-morpholinyl)sulphonylphenyl)-5-(1-(2-(R)-phenylazacycloheptyl)methyl)-1H-pyrrole, oxalate]
